Reference: the pKa sets of Baltruschat and Czodrowski (2020)
Where “and” joins values, the source holds several entries; their conditions need not be identical. Equal entries are not always repeated.

Settings: acidic group
In the case of `c1cc(-c2nn[nH]n2)cc(-c2nnn[nH]2)c1`, the pKa is reported as 3.38. `S=C(Nc1ccccc1)c1ccc(Cl)cc1` gave a pKa of 10.8. In the case of `O=C1C=Cc2ccccc2/C1=N\O`, the pKa is reported as 7.77. For `Cc1ccc(S(=O)(=O)NCCC(=[NH2+])N(C)C)cc1`, the pKa was 9.84. `CNCC(N)=O` showed a pKa of 8.35. In the case of `O=S(=O)([O-])c1ccc2c(/N=N/c3ccc4[nH]cnc4c3)c(O)c(S(=O)(=O)[O-])cc2c1`, the pKa is reported as 9.8. Molecule `Cc1ccc(O)c(=O)cc1` has a pKa of 7.32. With `COc1ccccc1C(=O)NO` the pKa was 8.9. Molecule `Cc1cc(C)c2c(O)c(CC(=O)O)oc2c1` has a pKa of 4.75. `[NH3+]CC(=O)N[C@@H](Cc1c[nH]c[nH+]1)C(=O)O` showed a pKa of 2.61. `O=C(O)CC#Cc1ccccc1` showed a pKa of 3.44. `O=C1Oc2ccccc2C(=O)C1CC1C(=O)Oc2ccccc2C1=O` (configuration not stated) showed a pKa of 5.5. `CCOC(=O)c1cc(C)[n+](O)c(C)c1` showed a pKa of -0.13. In the case of `O=C([O-])C[NH+](CCNS(=O)(=O)c1ccccc1)CC(=O)[O-]`, the pKa is reported as 7.82. In the case of `COC1=CC2CCC1(C(=O)O)CC2`, the pKa is reported as 4.45. In the case of `CC(C)(C)Cc1ccccc1O`, the pKa is reported as 10.7. `Cc1nnc(NS(=O)(=O)c2ccc(O)cc2)s1` gave a pKa of 5.37. Work on `Oc1cnoc1` yielded a pKa of 7.75. In the case of `Cc1ccc(S(=O)(=O)NCC[NH+](CC(=O)O)CC(=O)O)cc1`, the pKa is reported as 2.15. Molecule `Oc1ccccc1/C=N/c1ncc2nc[nH]c2n1` has a pKa of 9.19. Work on `O=C([O-])C[NH+](CC(=O)[O-])Cc1ccccc1O` yielded a pKa of 8.17. Work on `CCCCOc1ccc(O)cc1` yielded a pKa of 10.2. `S=c1[nH]c2ccccc2[nH]1` showed a pKa of 10.2. For `Oc1ccccc1-c1nnn[nH]1`, the pKa was 4.36. `Cn1cnc2c1NC=NS2(=O)=O` gave a pKa of 4.45. Molecule `Cc1ccc(SCC(=O)O)cc1` has a pKa of 3.57. Work on `COc1cc(C(N)=O)ccc1-c1nc2nn(C)cc2[nH]1` yielded a pKa of 12.3. Molecule `O=C1CCCC(=O)N1O` has a pKa of 7.6. `CCCCB(O)O` showed a pKa of 10.7. For `N#CC(C#N)=NNc1ccc(/N=N/c2ccccc2)cc1`, the pKa was 7.33. Work on `O=C(O)/C=C/c1ccoc1` yielded a pKa of 4.31. `Cc1ccc(S(=O)(=O)N(CC[NH2+]CC(=O)O)CC(=O)O)cc1` showed a pKa of 1.99. `O=C(c1ccccc1)c1cccc(O)c1` showed a pKa of 9. With `[NH3+][C@@H](Cc1c[nH]c[nH+]1)C(=O)N[C@@H](Cc1c[nH]c[nH+]1)C(=O)O` the pKa was 2.25. `O=Cc1cccnc1C(=O)O` showed a pKa of 3.7. `N#CC(C#N)=C(Br)C(C#N)C#N` showed a pKa of 2.6. With `CN(O)C(=O)c1ccc([N+](=O)[O-])cc1` the pKa was 7.92. For `NS(=O)(=O)c1cccc(C(=O)O)c1`, the pKa was 3.61. In the case of `Oc1[nH+]ccc2cccnc12`, the pKa is reported as 2.64. With `NC(=O)CC(=O)c1ccncc1` the pKa was 7.91. `CC(C)C(O[C@H]1O[C@@H](C(=O)O)[C@H](O)[C@@H](O)[C@@H]1O)C(C)C` gave a pKa of 3.89. `CN(C)c1cccc(O)c1` gave a pKa of 9.85. In the case of `COc1ccc(O)c(=O)cc1`, the pKa is reported as 7.75. Work on `NC(=S)Nc1cccc([N+](=O)[O-])c1` yielded a pKa of 11.1. With `CCOC(=O)c1cccc(O)c1` the pKa was 9.05. With `[NH3+]CCCCC#CC#CCCC(=O)O` the pKa was 4.15. With `Clc1nnn[nH]1` the pKa was 2.07. For `Cc1ccc(C)c(C(=O)O)c1`, the pKa was 3.97. In the case of `O=[N+]([O-])c1cccc(/C=C/C=N/O)c1`, the pKa is reported as 10.2. With `COc1cc(/C=N/c2ncc3nc[nH]c3n2)ccc1O` the pKa was 8.91. With `O=C(O)C#CI` the pKa was 2.

Same assay, conditions: basic group
Molecule `O=[N+]([O-])c1ccc(/C=N/c2ncccn2)cc1` has a pKa of 3.12. With `CC(C)n1nnnc1N` the pKa was 1.91. `NCCOCCO` gave a pKa of 9.43. `Nc1ccccc1C(=O)[O-]` showed a pKa of 4.87. `CCC(CO)NCl` (configuration not stated) showed a pKa of 1.55. In the case of `CC[C@@H]1C(=O)OC[C@H]1Cc1cncn1C`, the pKa is reported as 7.17. For `CCN(CC)CCNc1nc(C)cc(Nc2ccc(Cl)cc2)n1`, the pKa was 9.6. With `Cc1cc(N)ccc1CN` the pKa was 9.77. `OC(c1ccccc1)(c1ccccc1)c1ccccn1` showed a pKa of 3.9. In the case of `C[C@@H]1CC[C@@H]2CCCN21`, the pKa is reported as 12. `C[C@@H]1N[C@@H]1C` gave a pKa of 5.34. With `CCCc1ccccn1` the pKa was 5.97. `Cc1ccc(N)c(C)c1` gave a pKa of 4.75. In the case of `Cn1ccc(=S)cc1`, the pKa is reported as 1.36. Work on `CCCCN1CCCCC1C(=O)Nc1c(C)cccc1C` (configuration not stated) yielded a pKa of 7.27. `CC(O)[C@@H]1CN[C@H](C(=O)[O-])[C@H]1CC(=O)[O-]` (some centres not stated) showed a pKa of 10.1. With `Cc1cccc(C)n1` the pKa was 6.85. For `Oc1ccccc1/C=N/c1ncc2nc[nH]c2n1`, the pKa was 3.38. `C[NH+](C)CCCCNc1ccnc2cccc([N+](=O)[O-])c12` showed a pKa of 6.71. `CCCC(=O)OCCN(C)C` showed a pKa of 8.31. Work on `Cc1ccccc1/C(=N\CCCN(C)C)c1cccc2ccccc12` yielded a pKa of 8.8. `CCCCC1CCCN1C` (configuration not stated) showed a pKa of 10. Molecule `C[C@]1(N)C[C@@H]1N` has a pKa of 9.06. For `CN(C)CCCN(C)CCC[NH+](C)C`, the pKa was 9. Work on `CCOC(=O)N1CCNCC1` yielded a pKa of 8.28. Work on `C=CCN(CC1CO1)CC1CO1` (configuration not stated) yielded a pKa of 6.16. Molecule `Nc1cccc2nc3ccccc3c(N)c12` has a pKa of 11. In the case of `Cc1cccc(C)c1Oc1ccccn1`, the pKa is reported as 2.26. For `CCNC[Si](C)(C)C`, the pKa was 11.1. `CNc1cccc2ccccc12` showed a pKa of 3.7. `NNC(=O)CC([NH2+]CCO)C(=O)[O-]` (configuration not stated) showed a pKa of 2.13. For `COc1cc(C(N)=O)ccc1-c1nc2nn(C)cc2[nH]1`, the pKa was 3.98. In the case of `Nc1cc([N+](=O)[O-])c2ccccc2c1`, the pKa is reported as 2.62. Work on `N#CC(C#N)=NNc1ccc(/N=N/c2ccccc2)cc1` yielded a pKa of -0.87. Molecule `CCCCNc1cc[nH+]c([O-])n1` has a pKa of 4.69. With `CCOC(=O)CC(c1ccccc1)N(C)C` (configuration not stated) the pKa was 7.66. `CC(C)[C@@H]1CC[C@@H](C)C[C@@H]1N` showed a pKa of 10.5. For `CC(=O)Nc1cccc2nc3ccccc3cc12`, the pKa was 4.4. With `Nc1ccncc1N` the pKa was 9.06. In the case of `Cc1ccnc([O-])n1`, the pKa is reported as 9.8. With `Cc1ccno1` the pKa was 2.3. Work on `CCn1cnc2ccccc21` yielded a pKa of 5.66. Molecule `NC[C@@H](O)[C@H]1NC(N)=N[C@@H]1C(=O)[O-]` has a pKa of 11.9. In the case of `CN(C)CCN(C)CCN(C)C`, the pKa is reported as 9.55 and 9.4. With `Nc1ccc2cnccc2c1` the pKa was 7.17. In the case of `CC1ONCc2ccccc21` (configuration not stated), the pKa is reported as 3.6. With `CN(CCO)c1ccccc1` the pKa was 4.89. With `N#Cc1ccccn1` the pKa was -0.26. Work on `N=C(c1ccccc1)c1ccccc1Cl` yielded a pKa of 5.59. `CC(C)Cc1ccc(O)c(CN(C)C)c1` gave a pKa of 8.51. Molecule `CNCCC[NH2+]C` has a pKa of 8.68. In the case of `CCCNC(=O)[C@H](Cc1c[nH]cn1)NC(=O)c1cccc(CNCCN)n1`, the pKa is reported as 9.3. Work on `CC[NH+](CC)CCNc1cc(C)nc(N)n1` yielded a pKa of 7.6. With `Cc1cc(N)nc2c1ccc1ccccc12` the pKa was 6.02. With `c1ccc(-c2[nH]c3ccccc3[nH+]2)nc1` the pKa was -1.59. `Cc1cc(Cn2[nH+]c(C)cc2C)n[nH]1` gave a pKa of 1.2. `Cc1cc2nc3ccc(N(C)C)cc3[nH+]c2cc1N` gave a pKa of 0.2. `CCCCCCCCCCNc1ccccc1` showed a pKa of 4.56. Molecule `Cc1cnc2c(ccc3c(C)c(C)cnc32)c1C` has a pKa of 6.31. `COc1cccc(N)c1` showed a pKa of 4.23. With `Cc1nnc(N)nc1C` the pKa was 3.71. Molecule `CCNCC(=O)N(CC)CC` has a pKa of 8.78. Molecule `Cc1cc2cccc(C)c2nc1C` has a pKa of 4.41. `CN1CCC(n2nc(-c3ccccc3)c(Cc3ccccc3)c2[O-])CC1` gave a pKa of 9.13. With `Cc1cc(-c2ccccc2)nn2c(C[NH+]3CCOCC3)cnc12` the pKa was 2.9. For `Nc1cccc2nc3ccccc3cc12`, the pKa was 6.04. `Cc1ccn(C)c2nc3ccccc3c1-2` showed a pKa of 8.35. `COc1cc(/C=N/c2ncc3nc[nH]c3n2)ccc1O` showed a pKa of 2.79. Molecule `CC(C)([NH3+])C(N)=S` has a pKa of -8.75. Molecule `OCCN(CCO)CCc1nnn[nH]1` has a pKa of 9.2. With `O=[N+]([O-])c1ccc2cccnc2c1O` the pKa was 1.94.
